Assay: Atomic Absorption analysis of top and bottom layers for Zn2+
Assay type: physicochemical
Settings: overall 1% ZnCl2 (4800 ppm)
Procedure: Results are similar with Zn^2+ as the cation. […] The concentration of Zn^2+ in the top layer was measured as 1400 ppm Zn^2+ while the bottom was 8800 ppm, i.e., 6.3 fold higher concentration vs. the top.

## [Cl-].[Cl-].[Zn+2] [ZnCl2]
  Zn2+ concentration, bottom vs. the top: 6.3 fold
  concentration of Zn2+ in the bottom layer: 8800 ppm
  concentration of Zn2+ in the top layer: 1400 ppm

— patent US12478574B2, “Oral care compositions” (Colgate-Palmolive Company, priority 2016, dated 2025)
